Measured values as given in ChEMBL document CHEMBL1145157, “Synthesis and structure-activity relationships of soluble 7-substituted 3-(3,5-dimethoxyphenyl)-1,6-naphthyridin-2-amines and related ureas as dual inhibitors of the fibroblast growth factor receptor-1 and vascular endothelial growth factor receptor-2 tyrosine kinases” (J Med Chem, 2005).

What was measured:
[1] = target: Proto-oncogene tyrosine-protein kinase Src (Gallus gallus, UniProt P00523); experiment: Inhibition of glutamate/tyrosine (4:1) copolymer phosphorylation by avian c-Src tyrosine kinase
[2] = target: Platelet-derived growth factor receptor beta (Mus musculus, UniProt P05622); experiment: Inhibition of glutamate/tyrosine (4:1) copolymer phosphorylation by mouse platelet-derived growth factor receptor-beta
[3] = target: Platelet-derived growth factor receptor (PDGFr) (Rattus norvegicus, UniProt P20786+Q05030); experiment: Inhibition of PDGF-dependent rat glioma cell proliferation; assay type: functional
[4] = target: Vascular endothelial growth factor receptor 2 (Homo sapiens, UniProt P35968); experiment: Inhibition of glutamate/tyrosine (4:1) copolymer phosphorylation by human VEGFR 2 in DELFIA assay
[5] = target: Vascular endothelial growth factor receptor (Homo sapiens, UniProt P17948+P35916+P35968); experiment: Inhibition of VEGF-stimulated human umbilical vein endothelial cell proliferation; assay type: functional, cell-based

Platelet-derived growth factor receptor beta, sequence (P05622 whole entry): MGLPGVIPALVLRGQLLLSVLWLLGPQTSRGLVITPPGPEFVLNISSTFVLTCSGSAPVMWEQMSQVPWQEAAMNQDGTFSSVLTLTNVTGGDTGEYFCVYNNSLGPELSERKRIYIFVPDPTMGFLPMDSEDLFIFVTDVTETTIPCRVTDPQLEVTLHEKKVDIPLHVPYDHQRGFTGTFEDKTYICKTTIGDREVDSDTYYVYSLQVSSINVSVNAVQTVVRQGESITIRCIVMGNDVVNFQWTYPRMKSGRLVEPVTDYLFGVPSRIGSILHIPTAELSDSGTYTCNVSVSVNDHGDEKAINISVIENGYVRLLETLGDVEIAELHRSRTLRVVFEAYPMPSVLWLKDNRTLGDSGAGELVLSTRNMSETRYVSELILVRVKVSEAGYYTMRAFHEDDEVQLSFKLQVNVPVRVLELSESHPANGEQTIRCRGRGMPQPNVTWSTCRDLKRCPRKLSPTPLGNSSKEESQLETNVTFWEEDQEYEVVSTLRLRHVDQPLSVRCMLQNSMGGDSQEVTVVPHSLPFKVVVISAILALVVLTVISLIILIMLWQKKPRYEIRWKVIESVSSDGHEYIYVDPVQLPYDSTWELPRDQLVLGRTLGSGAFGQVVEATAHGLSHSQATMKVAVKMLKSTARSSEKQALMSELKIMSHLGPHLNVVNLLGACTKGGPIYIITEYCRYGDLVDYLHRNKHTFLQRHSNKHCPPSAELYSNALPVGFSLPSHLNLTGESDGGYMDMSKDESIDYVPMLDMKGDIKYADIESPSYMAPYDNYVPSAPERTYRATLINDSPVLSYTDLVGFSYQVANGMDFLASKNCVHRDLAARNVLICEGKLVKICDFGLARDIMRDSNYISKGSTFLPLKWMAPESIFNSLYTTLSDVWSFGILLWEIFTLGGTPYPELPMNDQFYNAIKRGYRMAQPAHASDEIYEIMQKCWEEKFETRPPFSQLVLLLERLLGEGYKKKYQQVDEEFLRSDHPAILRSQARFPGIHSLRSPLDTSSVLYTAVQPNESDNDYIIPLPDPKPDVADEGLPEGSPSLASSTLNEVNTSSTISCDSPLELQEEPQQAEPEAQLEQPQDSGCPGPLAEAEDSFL
Vascular endothelial growth factor receptor 2, sequence (P35968 whole entry): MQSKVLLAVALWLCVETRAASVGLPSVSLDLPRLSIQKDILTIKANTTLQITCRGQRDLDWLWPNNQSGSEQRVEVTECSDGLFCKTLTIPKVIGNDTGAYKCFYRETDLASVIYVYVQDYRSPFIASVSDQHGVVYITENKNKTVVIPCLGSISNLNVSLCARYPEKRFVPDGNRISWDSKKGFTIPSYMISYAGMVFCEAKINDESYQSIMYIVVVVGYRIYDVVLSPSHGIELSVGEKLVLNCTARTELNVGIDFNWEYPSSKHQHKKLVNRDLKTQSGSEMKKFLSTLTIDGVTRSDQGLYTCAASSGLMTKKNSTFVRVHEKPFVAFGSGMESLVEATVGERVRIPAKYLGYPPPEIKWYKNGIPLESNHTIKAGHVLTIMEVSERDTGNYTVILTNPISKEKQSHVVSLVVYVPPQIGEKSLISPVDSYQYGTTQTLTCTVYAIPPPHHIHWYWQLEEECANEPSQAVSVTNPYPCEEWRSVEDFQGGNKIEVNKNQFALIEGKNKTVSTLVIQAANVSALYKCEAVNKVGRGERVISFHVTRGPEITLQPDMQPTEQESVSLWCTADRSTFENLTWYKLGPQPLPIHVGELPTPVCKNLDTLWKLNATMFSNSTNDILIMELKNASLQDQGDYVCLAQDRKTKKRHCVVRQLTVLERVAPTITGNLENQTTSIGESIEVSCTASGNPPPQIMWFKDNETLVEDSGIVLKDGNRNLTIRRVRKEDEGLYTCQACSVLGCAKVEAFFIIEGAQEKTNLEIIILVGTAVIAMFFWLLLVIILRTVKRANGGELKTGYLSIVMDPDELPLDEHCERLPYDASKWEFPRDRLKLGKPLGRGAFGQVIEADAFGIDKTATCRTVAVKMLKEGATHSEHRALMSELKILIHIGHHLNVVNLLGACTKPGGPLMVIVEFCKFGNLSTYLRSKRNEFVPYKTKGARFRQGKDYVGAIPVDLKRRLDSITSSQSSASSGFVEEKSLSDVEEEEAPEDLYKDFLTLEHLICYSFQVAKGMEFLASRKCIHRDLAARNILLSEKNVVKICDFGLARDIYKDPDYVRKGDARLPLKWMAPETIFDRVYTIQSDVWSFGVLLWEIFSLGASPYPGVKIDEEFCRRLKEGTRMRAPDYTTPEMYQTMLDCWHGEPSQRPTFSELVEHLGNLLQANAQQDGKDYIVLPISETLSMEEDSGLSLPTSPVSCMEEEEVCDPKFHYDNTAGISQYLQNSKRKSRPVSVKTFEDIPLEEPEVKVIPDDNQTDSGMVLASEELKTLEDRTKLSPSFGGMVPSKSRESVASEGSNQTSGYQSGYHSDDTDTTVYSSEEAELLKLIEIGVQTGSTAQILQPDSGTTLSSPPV

| IC50 [1] [µM] | IC50 [2] [µM] | IC50 [3] [µM] | IC50 [4] [µM] | IC50 [5] [µM] | SMILES |
| --- | --- | --- | --- | --- | --- |
| 0.019 | 0.54 | – | – | – | CCNC(=O)Nc1nc2cc(NCCCN3CCN(C)CC3)ncc2cc1-c1c(Cl)cccc1Cl |
| 35 | 45 | 12 | – | – | CCNC(=O)Nc1nc2nc(NCCCN3CCN(C)CC3)ncc2cc1-c1cc(OC)cc(OC)c1 |
| 1.4 | 12 | – | – | – | CCN(CC)CCCCNc1cc2nc(N)c(-c3ccccc3)cc2cn1 |
| 6.1 | 27 | 0.98 | – | – | COc1cc(OC)cc(-c2cc3cnc(NCCCCCN4CCN(C)CC4)cc3nc2NC(=O)NC(C)(C)C)c1 |
| > 50 | > 50 | – | – | – | COc1cc(OC)cc(C2Cc3cnc(N(CCCCOCc4ccccc4)C(C)=O)cc3N=C2NC(=O)NC(C)(C)C)c1 (stereo unspecified) |
| 1.6 | 8.8 | – | – | – | CN1CCN(CCCNc2cc3nc(N)c(-c4ccccc4)cc3cn2)CC1 |
| 9.1 | 16 | 1.8 | – | – | COc1cc(OC)cc(-c2cc3cnc(NCCCN4CCN(C)CC4)cc3nc2NC(=O)NC(C)(C)C)c1 |
| > 50 | 11 | 3.4 | – | – | COc1cc(OC)cc(-c2cc3cnc(NCCCCCO)cc3nc2NC(=O)NC(C)(C)C)c1 |
| 0.069 | 4.7 | – | – | – | CN1CCN(CCCNc2cc3nc(N)c(-c4c(Cl)cccc4Cl)cc3cn2)CC1 |
| > 50 | > 50 | – | – | – | COc1cc(OC)cc(-c2cc3cnc(NCCCOc4ccccc4)cc3nc2NC(=O)NC(C)(C)C)c1 |
| > 50 | > 50 | – | – | – | COc1cc(OC)cc(-c2cc3cnc(N(CCCO)C(C)=O)cc3nc2NC(=O)NC(C)(C)C)c1 |
| > 50 | > 50 | – | – | – | COc1cc(OC)cc(-c2cc3cnc(NCCCCOc4ccccc4)cc3nc2NC(=O)NC(C)(C)C)c1 |
| > 50 | > 50 | – | – | – | COc1cc(OC)cc(-c2cc3cnc(N(CCCCCOCc4ccccc4)C(C)=O)cc3nc2NC(=O)NC(C)(C)C)c1 |
| > 50 | > 50 | 11 | – | – | COc1cc(OC)cc(-c2cc3cnc(NCCCO)nc3nc2NC(=O)NC(C)(C)C)c1 |
| 14 | 30 | 7.5 | – | – | CCNC(=O)Nc1nc2cc(NCCCN3CCN(C)CC3)ncc2cc1-c1cc(OC)cc(OC)c1 |
| 0.23 | 1.2 | – | – | – | CN1CCN(CCCNc2cc3nc(NC(=O)NC(C)(C)C)c(-c4ccccc4)cc3cn2)CC1 |
| 0.11 | 0.45 | – | – | – | CCN(CC)CCCCNc1cc2nc(NC(=O)NC(C)(C)C)c(-c3ccccc3)cc2cn1 |
| 4.6 | 2.6 | 2.1 | – | – | CCN(CC)CCCCNc1cc2nc(NC(=O)NC(C)(C)C)c(-c3cc(OC)cc(OC)c3)cc2cn1 |
| > 50 | > 50 | – | – | – | COc1cc(OC)cc(-c2cc3cnc(N(CCCCO)C(C)=O)cc3nc2NC(=O)NC(C)(C)C)c1 |
| 0.014 | 0.16 | – | – | – | CCNC(=O)Nc1nc2cc(NCCCCN(CC)CC)ncc2cc1-c1c(Cl)cccc1Cl |
| > 50 | > 50 | – | – | – | COc1cc(OC)cc(-c2cc3cnc(N(CCCCOCc4ccccc4)C(C)=O)cc3nc2NC(=O)NC(C)(C)C)c1 |
| > 50 | > 50 | – | – | – | COc1cc(OC)cc(C2Cc3cnc(N(CCCCO)C(C)=O)cc3N=C2NC(=O)NC(C)(C)C)c1 (stereo unspecified) |

The next lines start with the compound.

| SMILES | IC50 [1] [µM] | IC50 [2] [µM] | IC50 [3] [µM] | IC50 [4] [µM] | IC50 [5] [µM] |
| --- | --- | --- | --- | --- | --- |
| COc1cc(OC)cc(-c2cc3cnc(NCCCCO)cc3nc2NC(=O)NC(C)(C)C)c1 | > 50 | 23 | 1.2 | – | – |
| CCNC(=O)Nc1nc2nc(NCCCCN(CC)CC)ncc2cc1-c1cc(OC)cc(OC)c1 | 22 | 27 | > 25 | – | – |
| COc1cc(OC)cc(-c2cc3cnc(NCCCN4CCN(C)CC4)nc3nc2NC(=O)NC(C)(C)C)c1 | 26 | 31 | 7.9 | – | – |
| COc1cc(OC)cc(-c2cc3cnc(N(CCCCCO)C(C)=O)cc3nc2NC(=O)NC(C)(C)C)c1 | > 50 | > 50 | – | – | – |
| CCN(CC)CCCNc1cc2nc(NC(=O)NC(C)(C)C)c(-c3cc(OC)cc(OC)c3)cc2cn1 | 16 | 18 | 4 | – | – |
| CCN(CC)CCCCNc1cc2nc(N)c(-c3cc(OC)cc(OC)c3)cc2cn1 | 26 | > 50 | 5.9 | – | – |
| CN1CCN(CCCNc2cc3nc(NC(=O)NC(C)(C)C)c(-c4c(Cl)cccc4Cl)cc3cn2)CC1 | 0.019 | 0.62 | – | – | – |
| CCN(CC)CCCCNc1ncc2cc(-c3cc(OC)cc(OC)c3)c(NC(=O)NC(C)(C)C)nc2n1 [PD-173074] | 20 | 14 | 17 | 0.12 | 0.19 |
| COc1cc(OC)cc(-c2cc3cnc(NCCCN4CCOCC4)cc3nc2NC(=O)NC(C)(C)C)c1 | > 50 | – | 3.4 | – | – |
| CN1CCN(CCCNc2cc3nc(NCCCN4CCN(C)CC4)c(-c4ccccc4)cc3cn2)CC1 | 6.8 | > 50 | – | – | – |
| COc1cc(OC)cc(-c2cc3cnc(NCCCCN4CCOCC4)cc3nc2NC(=O)NC(C)(C)C)c1 | 21 | 15 | 2.7 | – | – |
| COc1cc(OC)cc(C2Cc3cnc(N(CCCOCc4ccccc4)C(C)=O)cc3N=C2NC(=O)NC(C)(C)C)c1 (stereo unspecified) | > 50 | > 50 | – | – | – |
| COc1cc(OC)cc(-c2cc3cnc(NCCCCCN4CCOCC4)cc3nc2NC(=O)NC(C)(C)C)c1 | 16 | > 50 | 2.9 | – | – |
| COc1cc(OC)cc(-c2cc3cnc(N(CCCOCc4ccccc4)C(C)=O)cc3nc2NC(=O)NC(C)(C)C)c1 | > 50 | > 50 | – | – | – |
| COc1cc(OC)cc(-c2cc3cnc(NCCCO)cc3nc2NC(=O)NC(C)(C)C)c1 | > 50 | 32 | 1.8 | – | – |
| COc1cc(OC)cc(C2Cc3cnc(N(CCCCCO)C(C)=O)cc3N=C2NC(=O)NC(C)(C)C)c1 (stereo unspecified) | > 50 | > 50 | – | – | – |
| COc1cc(OC)cc(-c2cc3cnc(NCCCN4CCN(C)CC4)cc3nc2N)c1 | > 50 | 50 | 9.1 | – | – |
| COc1cc(OC)cc(C2Cc3cnc(N(CCCO)C(C)=O)cc3N=C2NC(=O)NC(C)(C)C)c1 (stereo unspecified) | > 50 | > 50 | – | – | – |
| CCN(CC)CCCCNc1cc2nc(N)c(-c3c(Cl)cccc3Cl)cc2cn1 | 0.042 | 4 | – | – | – |
| CCN(CC)CCCCCNc1cc2nc(NC(=O)NC(C)(C)C)c(-c3cc(OC)cc(OC)c3)cc2cn1 | 3.6 | 5 | 1.5 | – | – |
| COc1cc(OC)cc(-c2cc3cnc(NCCCCN4CCN(C)CC4)cc3nc2NC(=O)NC(C)(C)C)c1 | 4.1 | 3.6 | 1.3 | – | – |
| CCN(CC)CCCCNc1cc2nc(NC(=O)NC(C)(C)C)c(-c3c(Cl)cccc3Cl)cc2cn1 | 0.014 | 0.48 | – | – | – |
| COc1cc(OC)cc(C2Cc3cnc(N(CCCCCOCc4ccccc4)C(C)=O)cc3N=C2NC(=O)NC(C)(C)C)c1 (stereo unspecified) | > 50 | > 50 | – | – | – |
| CCNC(=O)Nc1nc2cc(NCCCCN(CC)CC)ncc2cc1-c1cc(OC)cc(OC)c1 | 7 | 6.5 | 3.5 | – | – |
| COc1cc(OC)cc(-c2cc3cnc(NCCCCCOc4ccccc4)cc3nc2NC(=O)NC(C)(C)C)c1 | > 50 | > 50 | – | – | – |
